Data taken from ChEMBL document CHEMBL4665648, “Potent and selective inhibitors of receptor-interacting protein kinase 1 that lack an aromatic back pocket group” (Bioorg Med Chem Lett, 2019).
pEC50: −log10 of the molar value.

Assays:
[1] = biological target: Tyrosine-protein kinase Yes (Homo sapiens) (UniProt P07947); test: Inhibition of recombinant human GST-tagged full length YES expressed in baculovirus expression system using Tyr 02 as substrate at 10 uM incubated for 60 mins by Z'-Lyte assay relative to control
[2] = biological target: Tyrosine-protein kinase JAK3 (Homo sapiens) (UniProt P52333); test: Inhibition of recombinant human GST-tagged JAK3 (781 to 1124 residues) expressed in baculovirus expression system using Tyr 06 as substrate at 10 uM incubated for 60 mins by Z'-lyte assay relative to control
[3] = Inhibition of necroptosis in human HT-29 cells assessed as reduction in TNFalpha/BV6/zVAD-fmk-induced cell death incubated for 18 hrs by Cell Titer Glo luminescent cell viability assay; format: functional, cell-based; conditions: HT-29, 18 h
[4] = biological target: Serine/threonine-protein kinase PAK 3 (Homo sapiens) (UniProt O75914); test: Inhibition of recombinant human His-tagged full length PAK3 expressed in baculovirus expression system using Ser/Thr 20 as substrate at 10 uM incubated for 60 mins by Z'-lyte assay relative to control
[5] = biological target: MAP/microtubule affinity-regulating kinase 3 (Homo sapiens) (UniProt P27448); test: Inhibition of recombinant human GST-tagged full length MARK3 expressed in baculovirus expression system using Ser/Thr 25 as substrate at 10 uM incubated for 60 mins by Z'-lyte assay relative to control
[6] = biological target: Mitogen-activated protein kinase kinase kinase kinase 5 (Homo sapiens) (UniProt Q9Y4K4); test: Inhibition of recombinant human GST-tagged full length KHS1 expressed in baculovirus expression system using Ser/Thr 07 as substrate at 10 uM incubated for 60 mins by Z'-lyte assay relative to control
[7] = biological target: Serine/threonine-protein kinase PLK2 (Homo sapiens) (UniProt Q9NYY3); test: Inhibition of recombinant human GST-tagged full length PLK2 expressed in baculovirus expression system using Ser/Thr 16 as substrate at 10 uM incubated for 60 mins by Z'-lyte assay relative to control
[8] = biological target: Serine/threonine-protein kinase Sgk1 (Homo sapiens) (UniProt O00141); test: Inhibition of recombinant human GST-tagged full length SGK1 (60 to 431 residues) expressed in baculovirus expression system using Ser/Thr 06 as substrate at 10 uM incubated for 60 mins by Z'-Lyte assay relative to control
[9] = biological target: MAP kinase-activated protein kinase 3 (Homo sapiens) (UniProt Q16644); test: Inhibition of recombinant human His-tagged full length MAPKAPK3 expressed in baculovirus expression system using Ser/Thr 04 as substrate at 10 uM incubated for 60 mins by Z'-lyte assay relative to control
[10] = biological target: Rho-associated protein kinase 2 (Homo sapiens) (UniProt O75116); test: Inhibition of recombinant human N-terminal GST-tagged ROCK2 (1 to 552 residues) expressed in baculovirus expression system using Ser/Thr 13 as substrate at 10 uM incubated for 60 mins by Z'-Lyte assay relative to control
[11] = biological target: Cyclin-dependent kinase 7/ cyclin H (Homo sapiens) (UniProt P51946+P50613); test: Inhibition of recombinant human His-tagged full length CDK7/Cyclin H expressed in baculovirus expression system using CDK7/9tide as substrate at 10 uM incubated for 60 mins by Adapta assay relative to control
[12] = biological target: Mitogen-activated protein kinase kinase kinase 10 (Homo sapiens) (UniProt Q02779); test: Inhibition of tracer 236 binding to recombinant human GST-tagged full length MLK2 expressed in baculovirus expression system at 10 uM incubated for 60 mins by Lanthascreen assay relative to control
[13] = Inhibition of necroptosis in mouse L929 cells assessed as reduction in TNFalpha/BV6/zVAD-fmk-induced cell death incubated for 18 hrs by Cell Titer Glo luminescent cell viability assay; format: functional, cell-based; conditions: L929, 18 h
[14] = biological target: 5'-AMP-activated protein kinase catalytic subunit alpha-1 (Homo sapiens) (UniProt Q13131); test: Inhibition of PRKAA1 (unknown origin) by selectscreen kinase assay; conditions: dose 10.0 µM, time 60.0 min
[15] = biological target: CDK2/Cyclin A2 (Homo sapiens) (UniProt P24941+P20248); test: Inhibition of recombinant human His-tagged full length CDK2/Cyclin A expressed in baculovirus expression system using Ser/Thr 12 as substrate at 10 uM incubated for 60 mins by Z'-Lyte assay relative to control
[16] = biological target: Tyrosine-protein kinase HCK (Homo sapiens) (UniProt P08631); test: Inhibition of recombinant human N-terminal GST-tagged full length HCK expressed in baculovirus expression system using Tyr 02 as substrate at 10 uM incubated for 60 mins by Z'-Lyte assay relative to control
[17] = biological target: Mitogen-activated protein kinase 12 (Homo sapiens) (UniProt P53778); test: Inhibition of recombinant human His-tagged full length p38 gamma expressed in baculovirus expression system using Ser/Thr 03 as substrate at 10 uM incubated for 60 mins by Z'-Lyte assay relative to control
[18] = biological target: Dual specificity protein kinase CLK2 (Homo sapiens) (UniProt P49760); test: Inhibition of recombinant human GST-tagged CLK2 (137 to 498 residues) expressed in baculovirus expression system using Ser/Thr 06 as substrate at 10 uM incubated for 60 mins by Z'-Lyte assay relative to control
[19] = biological target: Calcium/calmodulin-dependent protein kinase type II subunit beta (Homo sapiens) (UniProt Q13554); test: Inhibition of recombinant human His-tagged full length CAMK2beta expressed in baculovirus expression system using Ser/Thr 04 as substrate at 10 uM incubated for 60 mins by Z'-Lyte assay relative to control
[20] = biological target: Vascular endothelial growth factor receptor 2 (Homo sapiens) (UniProt P35968); test: Inhibition of recombinant human His-tagged KDR (789 to 1356 residues) expressed in baculovirus expression system using Tyr 01 as substrate at 10 uM incubated for 60 mins by Z'-lyte assay relative to control
[21] = biological target: Mitogen-activated protein kinase 14 (Homo sapiens) (UniProt Q16539); test: Inhibition of recombinant human GST-tagged full length p38 alpha expressed in Escherichia coli expression system using Ser/Thr 15 as substrate at 10 uM incubated for 60 mins by Z'-Lyte assay relative to control
[22] = biological target: Tyrosine-protein kinase ITK/TSK (Homo sapiens) (UniProt Q08881); test: Inhibition of recombinant human GST-tagged full length ITK expressed in baculovirus expression system using Tyr 04 as substrate at 10 uM incubated for 60 mins by Z'-lyte assay relative to control
[23] = biological target: Tyrosine-protein kinase BTK (Homo sapiens) (UniProt Q06187); test: Inhibition of recombinant human His-tagged full length BTK expressed in baculovirus expression system using Tyr 01 as substrate at 10 uM incubated for 60 mins by Z'-Lyte assay relative to control
[24] = biological target: Inhibitor of nuclear factor kappa-B kinase subunit beta (Homo sapiens) (UniProt O14920); test: Inhibition of recombinant human GST-tagged full length IKKbeta expressed in baculovirus expression system using Ser/Thr 05 as substrate at 10 uM incubated for 60 mins by Z'-Lyte assay relative to control

Sequence of MAP/microtubule affinity-regulating kinase 3 (Homo sapiens) (P27448 whole entry, looked up): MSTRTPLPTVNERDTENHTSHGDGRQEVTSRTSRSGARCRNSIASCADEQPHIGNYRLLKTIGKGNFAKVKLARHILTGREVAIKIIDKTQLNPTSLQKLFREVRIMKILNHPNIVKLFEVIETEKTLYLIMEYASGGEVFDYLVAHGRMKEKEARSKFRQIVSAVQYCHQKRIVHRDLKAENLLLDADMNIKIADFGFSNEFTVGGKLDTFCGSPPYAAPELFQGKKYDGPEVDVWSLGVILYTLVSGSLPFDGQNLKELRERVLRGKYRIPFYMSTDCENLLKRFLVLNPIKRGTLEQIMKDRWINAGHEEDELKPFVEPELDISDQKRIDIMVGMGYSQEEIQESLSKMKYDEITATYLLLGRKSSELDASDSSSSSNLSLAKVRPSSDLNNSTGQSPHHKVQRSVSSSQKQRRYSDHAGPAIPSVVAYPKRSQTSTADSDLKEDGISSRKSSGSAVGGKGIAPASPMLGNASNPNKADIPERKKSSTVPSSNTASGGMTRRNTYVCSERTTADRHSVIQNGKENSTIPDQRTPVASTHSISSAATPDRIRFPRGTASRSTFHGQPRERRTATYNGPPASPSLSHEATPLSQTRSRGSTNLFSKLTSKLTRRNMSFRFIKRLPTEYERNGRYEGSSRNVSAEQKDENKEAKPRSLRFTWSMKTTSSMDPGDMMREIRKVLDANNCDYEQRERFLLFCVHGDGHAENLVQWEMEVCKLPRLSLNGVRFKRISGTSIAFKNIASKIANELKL
Sequence of Mitogen-activated protein kinase 14 (Homo sapiens) (Q16539 whole entry): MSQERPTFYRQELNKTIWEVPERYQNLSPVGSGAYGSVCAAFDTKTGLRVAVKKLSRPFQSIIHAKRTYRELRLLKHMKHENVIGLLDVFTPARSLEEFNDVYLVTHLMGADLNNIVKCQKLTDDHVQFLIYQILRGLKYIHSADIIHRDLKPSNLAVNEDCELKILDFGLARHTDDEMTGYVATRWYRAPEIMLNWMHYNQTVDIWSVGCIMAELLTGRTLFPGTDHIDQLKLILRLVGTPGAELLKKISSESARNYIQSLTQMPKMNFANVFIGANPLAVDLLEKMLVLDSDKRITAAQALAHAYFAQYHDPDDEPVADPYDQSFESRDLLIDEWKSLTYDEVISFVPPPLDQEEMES
Sequence of Serine/threonine-protein kinase PAK 3 (Homo sapiens) (O75914 whole entry, looked up): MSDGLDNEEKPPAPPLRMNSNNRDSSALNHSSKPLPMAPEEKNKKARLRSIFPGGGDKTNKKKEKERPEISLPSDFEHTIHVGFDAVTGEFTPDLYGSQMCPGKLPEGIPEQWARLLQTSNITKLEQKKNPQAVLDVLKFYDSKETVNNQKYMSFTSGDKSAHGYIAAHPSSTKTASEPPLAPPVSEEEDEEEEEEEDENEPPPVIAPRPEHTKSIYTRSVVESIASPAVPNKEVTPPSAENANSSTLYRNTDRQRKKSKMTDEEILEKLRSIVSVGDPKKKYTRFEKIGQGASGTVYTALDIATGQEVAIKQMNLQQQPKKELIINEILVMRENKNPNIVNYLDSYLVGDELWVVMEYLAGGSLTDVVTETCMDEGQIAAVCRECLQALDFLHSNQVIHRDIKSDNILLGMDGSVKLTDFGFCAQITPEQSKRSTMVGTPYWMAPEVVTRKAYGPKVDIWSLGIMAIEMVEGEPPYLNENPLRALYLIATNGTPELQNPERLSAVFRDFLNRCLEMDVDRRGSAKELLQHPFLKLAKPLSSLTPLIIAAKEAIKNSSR
Sequence of Tyrosine-protein kinase JAK3 (Homo sapiens) (P52333 whole entry, the tested form may be a part): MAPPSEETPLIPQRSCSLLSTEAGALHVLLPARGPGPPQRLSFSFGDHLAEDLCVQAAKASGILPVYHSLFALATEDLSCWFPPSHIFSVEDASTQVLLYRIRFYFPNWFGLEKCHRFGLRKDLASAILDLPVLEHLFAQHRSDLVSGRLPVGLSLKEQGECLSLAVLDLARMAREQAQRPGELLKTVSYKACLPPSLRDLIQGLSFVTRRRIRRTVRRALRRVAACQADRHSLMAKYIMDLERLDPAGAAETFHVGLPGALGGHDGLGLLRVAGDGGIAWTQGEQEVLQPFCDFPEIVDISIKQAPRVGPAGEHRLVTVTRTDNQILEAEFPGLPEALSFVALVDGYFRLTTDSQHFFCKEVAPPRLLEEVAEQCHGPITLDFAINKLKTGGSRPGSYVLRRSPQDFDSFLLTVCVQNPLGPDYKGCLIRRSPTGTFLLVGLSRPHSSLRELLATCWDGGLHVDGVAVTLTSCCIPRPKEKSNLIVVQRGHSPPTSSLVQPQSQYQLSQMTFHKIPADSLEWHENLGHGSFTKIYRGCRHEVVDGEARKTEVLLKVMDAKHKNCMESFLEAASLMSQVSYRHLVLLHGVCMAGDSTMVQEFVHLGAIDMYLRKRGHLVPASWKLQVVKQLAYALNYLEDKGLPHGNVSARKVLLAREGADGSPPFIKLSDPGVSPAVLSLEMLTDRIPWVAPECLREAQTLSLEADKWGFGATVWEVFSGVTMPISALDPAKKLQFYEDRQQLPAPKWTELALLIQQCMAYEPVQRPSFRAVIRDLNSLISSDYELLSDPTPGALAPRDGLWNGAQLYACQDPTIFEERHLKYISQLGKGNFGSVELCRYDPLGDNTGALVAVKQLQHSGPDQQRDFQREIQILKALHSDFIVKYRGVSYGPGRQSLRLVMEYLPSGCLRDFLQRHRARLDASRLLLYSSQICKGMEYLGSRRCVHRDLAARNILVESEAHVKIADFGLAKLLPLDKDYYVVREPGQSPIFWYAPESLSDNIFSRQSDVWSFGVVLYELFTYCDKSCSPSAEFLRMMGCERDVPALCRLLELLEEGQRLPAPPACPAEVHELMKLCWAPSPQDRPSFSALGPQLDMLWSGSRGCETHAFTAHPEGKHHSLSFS
Sequence of Mitogen-activated protein kinase kinase kinase kinase 5 (Homo sapiens) (Q9Y4K4 whole entry, looked up): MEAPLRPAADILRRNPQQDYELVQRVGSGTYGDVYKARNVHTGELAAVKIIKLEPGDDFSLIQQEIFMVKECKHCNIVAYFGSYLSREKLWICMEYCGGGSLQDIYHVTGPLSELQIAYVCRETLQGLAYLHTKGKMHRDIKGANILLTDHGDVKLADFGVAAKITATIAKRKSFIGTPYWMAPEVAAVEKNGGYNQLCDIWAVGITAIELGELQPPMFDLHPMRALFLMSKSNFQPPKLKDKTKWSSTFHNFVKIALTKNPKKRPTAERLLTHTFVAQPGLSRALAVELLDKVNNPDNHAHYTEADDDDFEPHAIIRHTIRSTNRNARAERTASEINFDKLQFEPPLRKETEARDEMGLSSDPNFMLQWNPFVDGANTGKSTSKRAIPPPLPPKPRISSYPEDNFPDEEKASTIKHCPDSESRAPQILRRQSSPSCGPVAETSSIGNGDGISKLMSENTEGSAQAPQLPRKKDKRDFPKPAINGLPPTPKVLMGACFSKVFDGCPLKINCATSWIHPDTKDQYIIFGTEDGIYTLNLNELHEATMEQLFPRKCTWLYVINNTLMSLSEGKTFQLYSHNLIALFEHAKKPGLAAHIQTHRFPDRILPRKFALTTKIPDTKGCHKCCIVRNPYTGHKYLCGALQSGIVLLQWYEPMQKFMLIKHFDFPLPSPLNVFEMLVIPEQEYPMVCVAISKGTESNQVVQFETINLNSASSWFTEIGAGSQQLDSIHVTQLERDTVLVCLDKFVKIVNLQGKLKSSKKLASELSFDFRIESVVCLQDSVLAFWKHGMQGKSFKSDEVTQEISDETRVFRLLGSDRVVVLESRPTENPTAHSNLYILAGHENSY
Sequence of Mitogen-activated protein kinase kinase kinase 10 (Homo sapiens) (Q02779 whole entry, looked up): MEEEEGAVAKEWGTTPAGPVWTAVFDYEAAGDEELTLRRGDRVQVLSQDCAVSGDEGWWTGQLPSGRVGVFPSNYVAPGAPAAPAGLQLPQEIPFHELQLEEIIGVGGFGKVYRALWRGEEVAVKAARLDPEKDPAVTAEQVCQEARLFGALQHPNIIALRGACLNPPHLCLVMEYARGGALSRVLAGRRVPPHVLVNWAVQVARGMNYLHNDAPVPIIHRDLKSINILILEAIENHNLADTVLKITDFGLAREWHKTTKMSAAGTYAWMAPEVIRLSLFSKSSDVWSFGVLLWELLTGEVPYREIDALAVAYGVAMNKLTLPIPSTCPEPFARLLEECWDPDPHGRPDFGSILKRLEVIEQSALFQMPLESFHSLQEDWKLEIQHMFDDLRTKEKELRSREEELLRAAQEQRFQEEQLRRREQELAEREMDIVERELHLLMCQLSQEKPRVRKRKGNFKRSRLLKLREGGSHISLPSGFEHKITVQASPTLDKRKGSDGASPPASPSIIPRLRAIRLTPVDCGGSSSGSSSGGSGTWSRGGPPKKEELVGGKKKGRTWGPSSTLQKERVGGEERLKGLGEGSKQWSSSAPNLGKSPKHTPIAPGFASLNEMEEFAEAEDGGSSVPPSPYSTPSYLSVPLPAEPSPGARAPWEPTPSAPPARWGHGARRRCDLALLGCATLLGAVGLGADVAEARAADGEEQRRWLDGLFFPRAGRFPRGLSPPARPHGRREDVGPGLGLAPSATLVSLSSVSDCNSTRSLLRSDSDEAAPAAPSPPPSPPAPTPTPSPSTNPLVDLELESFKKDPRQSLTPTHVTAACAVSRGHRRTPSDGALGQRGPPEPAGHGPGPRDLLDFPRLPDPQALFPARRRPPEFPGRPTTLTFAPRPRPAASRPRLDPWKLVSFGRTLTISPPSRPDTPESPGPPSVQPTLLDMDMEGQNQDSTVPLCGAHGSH
Sequence of Mitogen-activated protein kinase 12 (Homo sapiens) (P53778 whole entry, the tested form may be a part): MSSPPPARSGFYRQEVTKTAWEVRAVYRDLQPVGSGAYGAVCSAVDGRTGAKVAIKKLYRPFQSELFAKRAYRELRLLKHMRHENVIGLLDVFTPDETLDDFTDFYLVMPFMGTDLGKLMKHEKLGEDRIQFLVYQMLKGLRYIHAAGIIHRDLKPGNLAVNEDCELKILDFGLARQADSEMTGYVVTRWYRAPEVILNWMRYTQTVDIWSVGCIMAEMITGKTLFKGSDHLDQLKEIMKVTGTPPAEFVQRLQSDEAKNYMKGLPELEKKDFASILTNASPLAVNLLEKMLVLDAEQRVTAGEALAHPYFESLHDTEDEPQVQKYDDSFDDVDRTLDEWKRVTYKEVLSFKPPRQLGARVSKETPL

With `CN1C(=O)[C@@H](NC(=O)c2n[nH]c3ncc(C(F)(F)C(F)(F)F)cc23)COc2ccccc21` as the compound, how does the inhibition [1] read?
Its inhibition is 2.5%.

And the inhibition [2]?
The inhibition was 1.5%.

And the pEC50 [3]?
The pEC50 was 7.27.

What about the inhibition [4] of the same compound?
The inhibition was 8%.

And the inhibition [5]?
Its inhibition is -3.5%.

And the inhibition [6]?
The inhibition was -0.5%.

What about the inhibition [7] of the same compound?
Its inhibition is -1%.

What about the inhibition [8] of the same compound?
Its inhibition is 3%.

And the inhibition [9]?
Its inhibition is 0.5%.

And the inhibition [10]?
The inhibition was -3%.

What about the inhibition [11] of the same compound?
Its inhibition is 14.5%.

And the inhibition [12]?
The inhibition was 13.5%.

And the pEC50 [13]?
Its pEC50 is 4.96.

What about the inhibition [14] of the same compound?
The inhibition was 3%.

What about the inhibition [15] of the same compound?
Its inhibition is 13%.

And the inhibition [16]?
The inhibition was 4.5%.

And the inhibition [17]?
Its inhibition is -1%.

And the inhibition [18]?
Its inhibition is 24%.

And the inhibition [19]?
The inhibition was -1%.

And the inhibition [20]?
Its inhibition is 8%.

And the inhibition [21]?
The inhibition was 0.5%.

And the inhibition [22]?
The inhibition was -2%.

And the inhibition [23]?
The inhibition was -2%.

What about the inhibition [24] of the same compound?
Its inhibition is 0.5%.
